For one series, the target named is MDR1 (P-glycoprotein) (Homo sapiens (Human), UniProt P08183). Nature of the series: MDR1-MDCK permeability, bidirectional assay. In kind it is in vitro ADME. To be noted: MDR1-MDCK cells, efflux ratio, 1 μM, HBSS pH 7.4. The protocol: The blood brain barrier (BBB) separates circulating blood from the extracellular fluid of the central nervous system (CNS). The passive membrane permeability (Papp) and MDR1 (P-glycoprotein) substrate efflux potential were determined using the MDR1-MDCK cell line as an in vitro model of the effective permeability of a compound through the BBB. A bidirectional assay was conducted in pre-plated MDR1-MDCK cells using a 12 or 96-well plate in the absence or presence of MDR1 inhibitor (GF120918 or Valspodar). Assays were run in duplicate in transport buffer (HBSS, pH 7.4) for 90 or 120 min (minutes) at 37° C., using a test article concentration of 1 μM. […] Papp (apparent permeability expressed in cm/sec [centimeter/second]) values were calculated according to the following equation:
[formula] where VR is the solution volume in the receiver chamber (apical or basolateral side), Area is the surface area for the insert membrane), Time is incubation time expressed in seconds, CR is the peak area ratio (analyte/IS) in the receiver chamber, CA is the average of the initial and final concentrations in the donor chamber, and CO is the initial peak area ratio in the donor chamber. Papp was determined in both the apical to basolateral (A→B) and basolateral to apical (B→A) directions. […]

Series [1] in a line: Metabolic stability in human liver microsomes. It counts as in vitro ADME. Particulars: Table 5; 1 μM compound, 0.5 mg/mL protein, projected human hepatic clearance, well-stirred model. On the procedure: Metabolic stability of compounds was evaluated in human liver microsomes (from Corning or XenoTech, LLC) using a 96-well plate assay format. Compounds were incubated at 37° C. at 1 μM final concentration in the microsomal matrix (0.5 mg/mL total protein) in the presence or absence of NADPH cofactor. An NADPH regenerating system, comprised of NADP, MgCl2, isocitric acid, and isocitrate dehydrogenase, was used in the assay. Enzymatic reactions were conducted for 0, 5, 10, 20, 30, or 60 min before termination by addition of acetonitrile containing tolbutamide and labetalol internal standards (100 ng/mL). After shaking for 10 min, plates were subjected to centrifugation (4000 rpm at 4° C.) for 20 min and supernatants were mixed 1:3 with HPLC grade water. Samples were analyzed by LC-MS/MS using appropriate MRM transitions for each analyte and internal standard (IS). Analyte/IS peak area ratios were used to determine percent compound remaining at each time point. Intrinsic clearance (Clint; expressed as mL·min^−1·mg^−1) was calculated from the first order elimination constant (k, min^−1) of test article decay and the volume of the incubation. These values were scaled to intrinsic organ clearance (Clint) using human specific scaling factors (48.8 mg microsomal protein per g liver; 25.7 g liver per kg body weight). […]
For orientation: Liver microsomes are vesicles of endoplasmic reticulum, rich in cytochrome P450 enzymes.

MDR1 (P-glycoprotein), sequence (P08183 whole entry): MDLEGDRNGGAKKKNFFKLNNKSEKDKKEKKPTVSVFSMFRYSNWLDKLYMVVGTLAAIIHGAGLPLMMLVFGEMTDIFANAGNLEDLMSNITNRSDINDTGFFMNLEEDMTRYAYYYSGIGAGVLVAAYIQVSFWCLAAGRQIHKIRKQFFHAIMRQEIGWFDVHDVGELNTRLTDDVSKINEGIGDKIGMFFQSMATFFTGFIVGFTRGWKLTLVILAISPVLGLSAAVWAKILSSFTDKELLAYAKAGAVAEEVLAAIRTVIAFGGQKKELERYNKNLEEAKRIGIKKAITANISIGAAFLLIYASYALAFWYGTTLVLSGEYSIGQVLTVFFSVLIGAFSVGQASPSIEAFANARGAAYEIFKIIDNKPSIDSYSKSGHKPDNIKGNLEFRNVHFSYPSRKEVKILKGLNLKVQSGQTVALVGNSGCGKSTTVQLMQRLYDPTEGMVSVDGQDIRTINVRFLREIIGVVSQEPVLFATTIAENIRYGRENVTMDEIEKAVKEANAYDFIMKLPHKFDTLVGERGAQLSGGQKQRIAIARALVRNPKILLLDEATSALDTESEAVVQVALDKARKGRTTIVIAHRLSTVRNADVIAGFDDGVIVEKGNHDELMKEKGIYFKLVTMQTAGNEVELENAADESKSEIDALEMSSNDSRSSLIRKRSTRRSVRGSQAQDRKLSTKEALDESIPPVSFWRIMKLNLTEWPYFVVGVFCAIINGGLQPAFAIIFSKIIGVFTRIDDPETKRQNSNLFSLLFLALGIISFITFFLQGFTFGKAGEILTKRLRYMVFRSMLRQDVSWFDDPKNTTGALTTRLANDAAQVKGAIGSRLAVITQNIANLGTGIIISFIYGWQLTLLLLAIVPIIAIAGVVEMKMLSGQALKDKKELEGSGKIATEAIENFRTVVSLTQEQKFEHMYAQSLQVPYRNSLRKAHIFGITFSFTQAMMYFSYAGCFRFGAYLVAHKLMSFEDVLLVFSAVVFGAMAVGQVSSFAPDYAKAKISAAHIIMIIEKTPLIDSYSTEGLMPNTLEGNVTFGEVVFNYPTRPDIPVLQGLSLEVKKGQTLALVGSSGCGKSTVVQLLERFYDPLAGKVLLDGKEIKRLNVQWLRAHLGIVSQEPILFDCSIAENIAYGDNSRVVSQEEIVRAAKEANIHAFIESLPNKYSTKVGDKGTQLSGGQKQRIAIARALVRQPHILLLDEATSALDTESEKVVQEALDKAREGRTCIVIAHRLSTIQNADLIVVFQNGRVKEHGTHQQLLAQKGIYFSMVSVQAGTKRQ

In the case of `CCNc1nc(Nc2cc(C3(C)CCn4ncnc43)nn2C2CC2)ncc1C(F)(F)F` (single isomer, unassigned) [Compound 172], at MDR1 (P-glycoprotein), the “MDR1 ER” value stood at 42.
As to `CNc1nc(Nc2cn(C(C)(C)c3ncn(C)n3)nc2C)ncc1C(F)(F)F` [Compound 218], the “Human liver microsomes CLhep” value in series [1] was 0 mL/min/kg.

The record behind these values is US10590114B2, “Compounds, compositions, and methods” (Denali Therapeutics Inc., priority 2016, dated 2020).
